Values belong to the compound of their own block, whether it stands above or below them.
Columns and labels:
[1] = Inhibition of HIV-1 gp41 six-helix bundle formation incubated with N36 for 30 mins followed by incubation with C34 peptide for 30 mins by sandwich ELISA; assay type: functional, Human immunodeficiency virus 1
[2] = system: Human immunodeficiency virus 1; assay: Antiviral activity against HIV-1 NL4-3 infected in human TZM-bl cells assessed as reduction in virus-induced cytopathic effect incubated for 2 days by Bright Glo assay; assay type: functional, organism-based; details: Human immunodeficiency virus 1, NL4-3, TZM-bl, 48 h
[3] = system: Human immunodeficiency virus 1; assay: Antiviral activity against HIV-1 IIIB infected in human MT2 cells assessed as reduction in viral replication; assay type: functional, organism-based; details: Human immunodeficiency virus 1, IIIB
[4] = Selectivity index, ratio of CC50 for human MT2 cells to EC50 for HIV-1 IIIB infected in human MT2 cells; assay type: toxicity, cell-based; details: MT2 cells (uninfected, and infected with HIV-1 IIIB), read-out: Ratio CC50/EC50
[5] = system: Human immunodeficiency virus 1; assay: Antiviral activity against HIV-1 E138K mutant infected in human MT4 cells assessed as reduction in viral replication incubated for 5 days by MTT assay; assay type: functional, organism-based; details: Human immunodeficiency virus 1, E138K mutant, MT4, 120 h
[6] = Selectivity index, ratio of CC50 for human MT4 cells to EC50 for HIV-1 IIIB infected in human MT4 cells; assay type: toxicity, cell-based; details: MT4 cells (uninfected, and infected with HIV-1 IIIB), read-out: Ratio CC50/EC50
[7] = system: Human immunodeficiency virus 1; assay: Antiviral activity against HIV-1 IIIB infected in human MT4 cells assessed as reduction in virus-induced cytopathic effect incubated for 5 days by MTT assay; assay type: functional, organism-based; details: Human immunodeficiency virus 1, IIIB, MT4, 120 h
MT4 = assay: Cytotoxicity against human MT4 cells assessed as reduction in cell viability incubated for 5 days by MTT assay; assay type: functional; details: MT4, 120 h, time 5 day
[8] = system: Human immunodeficiency virus 1; assay: Antiviral activity against wild-type HIV-1 IIIB infected in human C8166 cells assessed as reduction in virus-induced cytopathic effect incubated for 3 days by MTT assay; assay type: functional, organism-based; details: Human immunodeficiency virus 1, IIIB, C8166, 72 h
[9] = Selectivity index, ratio of CC50 for human C8166 cells to EC50 for HIV IIIB infected in human C8166 cells; assay type: toxicity, cell-based; details: C8166 cells (uninfected, and infected with HIV IIIB), read-out: Ratio CC50/EC50

- IC50 [1]: 23000 nM
Compound: Cc1cc(/C=C2\SC(=S)N(Cc3ccccc3C(F)(F)F)C2=O)c(C)n1-c1ccc(O)c(C(=O)O)c1

- IC50 [2]: 2130 nM
Compound: COc1ccc(N(C)C(=O)[C@H](Cc2cc(F)cc(F)c2)NC(=O)c2cccc(-c3cn(Cc4ccc([N+](=O)[O-])cc4)nn3)c2)cc1

- IC50 [3]: 148 nM
Compound: Cc1cccc2cc(/C=C3\NC(=O)N(Cc4ccccc4)C3=O)c(Cl)nc12
- selectivity ratio [4]: 117

Compound: N#Cc1ccc(Nc2nccc(/C(=N\O)c3ccc(-c4ccc(F)cc4)cc3F)n2)cc1
- IC50 [5]: 27 nM
- selectivity ratio [6]: > 24100
- IC50 [7]: 12100 nM
- CC50 (MT4): > 292000 nM

Compound: CCc1c(CC2CCCCC2)nc(SCc2cc(-c3ccc(O)cc3)[nH]n2)[nH]c1=O
- IC50 [8]: 3.8 nM
- selectivity ratio [9]: 25.5
